Data taken from patent publication US6867043B2, “Peptides that deliver antisense oligonucleotides which downregulate protein expression in cells” (The Trustees of Columbia University in the City of New York, priority 2001, dated 2005).
Oligonucleotides are written 5' to 3', each unit as a sugar letter and its base; * is a phosphorothioate linkage, no mark a phosphodiester; rarer units and linkages stand in square brackets, end groups in braces. Plain capitals give the bases only. {Fluorescein} = fluorescein label; d = 2'-deoxy (DNA)

Legend:
bcl-2 = assay: Western blot of bcl-2 protein expression in PC3 cells; format: cell-based, human; conditions: PC-3 cells; short-peptide experiments; 25 μM chloroquine pretreatment
Experimental: (§1) Experiments using the protamine-NLS peptides to deliver antisense oligonucleotides were performed in T24 bladder carcinoma and PC-3 prostate carcinoma cells. In addition to the 20-mer ISIS 3521, the 18-mer phosphorothioate oligonucleotide G3139 (SEQ ID NO:6) was also employed. G3139 is targeted to the first six codons of the human bcl-2 open reading frame. […] The expression of PKC-α protein was assayed by Western blotting after 24 hr, while the expression of bcl-2 protein in PC3 cells was assayed similarly after a further 48 hr incubation in RPMI media containing 10% FBS. In both cases, the incubations were performed in the continuous presence of the peptide/oligonucleotide complexes.
Treatment of cells with oligonucleotide-peptide complexes: Cells were grown in six-well plates until 65-75% confluent. […]
Western Blotting: Cells were treated with peptide-oligodeoxynucleotide complexes, scraped, washed with cold PBS and then extracted in […] of lysis buffer [50 mM Tris-HCl, pH 7.5; 1% NP-40; 0.25% sodium deoxycholate; 150 mM NaCl; 1 mM EGTA; 50 μg/mL Pefablock™ SC; 15 μg/mL aprotinin, leupeptin, chymostatin, and pepstatin A; 1 mM Na3VO4; 1 mM NaF] at 4° C. for 1 hr. […] Protein concentrations were determined using the Bio-Rad protein assay system (Bio-Rad Laboratories, Richmond, Calif.). […]

PKC-α [1] = assay: Western blot of PKC-α protein expression in T24 cells; format: cell-based; conditions: for inhibition of PKC-α protein expression (antisense activity), in words: short-peptide experiments, 2 μM oligonucleotide, 25 μM chloroquine preincubation
Experimental: as §1
Treatment of cells with oligonucleotide-peptide complexes: Cells were grown in six-well plates until 65-75% confluent. […] The solution was mixed gently and incubated at room temperature for 30 min to allow oligonucleotide-peptide complexes to form. […] The cells were then incubated at 37° C. for 24 hr (for PKC-α) or re-fed with complete McCoy's 5A media containing 10% FBS and allowed to incubate for an additional 72 hr (for bcl-2) before cell lysis and extract preparation.
(§2) Western Blotting: Cells were treated with peptide-oligodeoxynucleotide complexes, scraped, washed with cold PBS and then extracted in […] of lysis buffer [50 mM Tris-HCl, pH 7.5; 1% NP-40; 0.25% sodium deoxycholate; 150 mM NaCl; 1 mM EGTA; 50 μg/mL Pefablock™ SC; 15 μg/mL aprotinin, leupeptin, chymostatin, and pepstatin A; 1 mM Na3VO4; 1 mM NaF] at 4° C. for 1 hr. Cell debris was removed by centrifugation at 14,000×g for 20 min at 4° C. Protein concentrations were determined using the Bio-Rad protein assay system (Bio-Rad Laboratories, Richmond, Calif.).
Aliquots of cell extracts containing 20-30 μg of protein were resolved by 10% or 12% SDS-polyacrylamide gel electrophoresis and transferred to Hybond ECL filter paper (Amersham, Arlington Heights, Ill.). […]

PKC-α [2] = assay: Western blot of PKC-α protein expression in PC3 cells; format: cell-based; conditions: for inhibition of PKC-α protein expression (antisense activity), in words: short-peptide experiments, 2 μM oligonucleotide, 25 μM chloroquine preincubation; for inhibition of PKC-α protein expression, in words: long-peptide experiments, ISIS 3521 0.25-2 μM, ISIS 4559 2 μM, 25 μM chloroquine pre-treatment required
Experimental: as §1
Treatment of cells with oligonucleotide-peptide complexes: Cells were grown in six-well plates until 65-75% confluent. The peptides, at the stated peptide/oligonucleotide molar ratios, were diluted in 500 μL of Opti-MEM medium and oligonucleotide was then added up to the required concentration of 2 μM. The solution was mixed gently and incubated at room temperature for 30 min to allow oligonucleotide-peptide complexes to form. […] The cells were then incubated at 37° C. for 24 hr (for PKC-α) or re-fed with complete McCoy's 5A media containing 10% FBS and allowed to incubate for an additional 72 hr (for bcl-2) before cell lysis and extract preparation.
as §2
Aliquots of cell extracts containing 20-30 μg of protein were resolved by 10% or 12% SDS-polyacrylamide gel electrophoresis and transferred to Hybond ECL filter paper (Amersham, Arlington Heights, Ill.). Filters were incubated at room temperature for 1-2 h in Blotto A [5% non-fat milk powder in TBS-T:10 mM Tris-HCl, pH 8.0, 150 mM NaCl, 0.05% Tween 20 (for PKC-α) and 5% BSA in PBS, 0.5% Tween (for Bcl-2)] and then probed overnight at 4° C. with 1:1000 dilution of anti-PKC- or 1:500 dilution of anti-Bcl-2 in Blotto A. After washing in TBS-T or PBS-T buffer (3×7 min, room temperature), filters were incubated for 1 h at room temperature in 5% milk/TBS-T or 5% milk/PBS-T buffer containing a 1:3,000 dilution of peroxidase-conjugated anti-mouse secondary antibody. […]

[3] = test system: T24 bladder carcinoma cells; assay: MTT cellular viability assay of paclitaxel-treated T24 cells; format: cell-based; conditions: 3 days paclitaxel, 24 hours treatment, 8 μM peptide / 2 μM oligonucleotide, 25 μM chloroquine pretreatment
Experimental: As a measure of the effectiveness of the peptide-delivered antisense inhibition of PKC-α the cells treated with peptide were exposed to paclitaxel, a compound commonly used in cancer therapy to inhibit microtubule depolymerization.
Cellular viability assay: Cells were seeded in 96-well tissue culture plates and treated the next day with oligonucleotide-peptide complexes for 24 hr. […] The cells were incubated for 4 hr at 37° C., 5% CO2 with 0.5 mg/mL MTT in complete media. An equal volume of solubilization solution (10% SDS in 0.01 M HCl) was then added and allowed to incubate overnight at 37° C. After the formazan crystals were dissolved, the plates were read on a Dynatech MR600 Microplate Reader at 540 nm.
Statistical analysis of the results was performed using the Analysis ToolPack provided by Microsoft Excel. A Student's two-sample t-test, assuming unequal variances, was used to determine the equality of the means of two samples. The confidence level was 0.05.

T24 cells = assay: Fluorescence confocal microscopy of oligonucleotide delivery to the cell nucleus; format: cell-based; conditions: 2 μM 5′-fluorescein-labeled ISIS 3521; 8 μM and 6 μM peptide; T24 cells pretreated with 25 μM chloroquine; 24 hr
Experimental: The ability of the protamine-NLS peptides to deliver the oligonucleotides into the cell nucleus was evaluated by fluorescence confocal microscopy.
Confocal microscopy: Cells were seeded in glass bottom microwells (MatTec Corp., Mass.), and treated with peptide-oligodeoxynucleotide complexes at 37° C. for 24 hr. Cellular internalization was examined using an LSM 410 laser scanning confocal microscope (Zeiss, Thornwood, N.Y.) equipped with a krypton/argon laser and attached to a Zeiss Axiovert 100 TV microscope. The 515-540 nm bandpass for fluorescein was used. Z-series were taken of a 1 to 2 micron optical section at 2 μm intervals. For measurements, a maximum projection of all sections was employed.

ISIS 3521 = assay: Fluorescence titration: quenching of peptide Trp fluorescence by bound oligonucleotide; format: binding
Experimental: The interaction of ISIS 3521 (SEQ ID NO:5), a 20mer phosphorothioate antisense oligonucleotide, with the short and long protamine-NLS peptides (s-protamine-NLS and l-protamine-NLS) was evaluated by fluorescence spectroscopy. The peptide contains a single Trp residue (position 8 of the short peptide; SEQ ID NO:2) which can be excited at 290 nm and emits fluorescent light at 330 nm. The ability of a bound oligonucleotide to quench this fluorescent emission constitutes a relatively sensitive probe for the monitoring of molecular interactions.
The titration of a 5 μM solution of s-protamine-NLS (SEQ ID NO:2) with increasing concentrations of ISIS 3521 (SEQ ID NO:5), both in PBS and in Opti-MEM (without serum, to mimic transfection conditions), led to dramatic fluorescence quenching. At least two oligonucleotide binding modes can be easily discerned: At low oligonucleotide concentration (relative to s-protamine-NLS peptide) a plot of the decrease in fluorescence (due to quenching) vs. oligonucleotide concentration fits an equation of the Michaelis-Menton type. […] However, as oligonucleotide concentration is increased, Trp fluorescence continues to decline, but a similar plot no longer fits a Michaelis-Menton-type equation, and the binding becomes increasingly complex. Trp fluorescence is finally completely quenched (i.e., 100%) at a 4:1 molar ratio of peptide/oligonucleotide. […]

Question: How did the “inhibition of Bcl-2 expression (antisense activity), in words” value (bcl-2) turn out when `CCN(CC)CCCC(C)Nc1ccnc2cc(Cl)ccc12` (stereo not drawn) [chloroquine] was run?
Answer: The value was “totally inactive”.

Question: What about the “inhibition of PKC-α protein expression (antisense activity), in words” value (PKC-α [1]) of the same compound?
Answer: Its value is “did not downregulate PKC-α expression”.

Question: And the “inhibition of PKC-α protein expression (antisense activity), in words” value (PKC-α [2])?
Answer: The value was “did not downregulate PKC-α expression”.

Question: What does the source list for “5′-GTTCTCGCTGGTGAGTTTCA-3′ (antisense dG*dT*dT*dC*dT*dC*dG*dC*dT*dG*dG*dT*dG*dA*dG*dT*dT*dT*dC*dA) [ISIS 3521]”?
Answer: cellular viability (reduction in cell proliferation by MTT assay), in words [3]: no effect on cell viability; inhibition of PKC-α protein expression (antisense activity), in words (PKC-α [1]): completely ineffective; inhibition of PKC-α protein expression, in words (PKC-α [2]): did not have antisense effects; inhibition of PKC-α protein expression (antisense activity), in words (PKC-α [2]): completely ineffective

Question: “5′-fluorescein-labeled ISIS 3521: ISIS 3521 labeled with fluorescein at the 5′ end, for confocal microscopy (antisense {Fluorescein}-dG*dT*dT*dC*dT*dC*dG*dC*dT*dG*dG*dT*dG*dA*dG*dT*dT*dT*dC*dA)” was tested. Which “delivery of fluoresceinated oligonucleotide to the cell nucleus” value (T24 cells) did it give?
Answer: Its value is “internalized poorly”.

Question: Which results are given for “RRRRRRWGRRRRRRPKKKRKV [s-protamine-NLS, peptide with shorter protamine fragment and SV40 large T-antigen nuclear localization signal]”?
Answer: delivery of fluoresceinated oligonucleotide to the cell nucleus (T24 cells): effectively delivered fluoresceinated oligonucleotide to the cell nucleus; cellular viability (reduction in cell proliferation by MTT assay), in words [3]: no effect on cell viability; Kd (ISIS 3521; 5 μM s-protamine-NLS titrated with ISIS 3521, low oligonucleotide concentration, R^2=0.99, read-out: Kd from Lineweaver-Burke (double reciprocal) plot of fluorescence quenching): 0.08 µM; Trp fluorescence quenched (ISIS 3521; at a 4:1 molar ratio of peptide/oligonucleotide): 100%

Question: How did the “delivery of fluoresceinated oligonucleotide to the cell nucleus” value (T24 cells) turn out when “s-protamine-scrambled NLS: control peptide: short protamine fragment with scrambled NLS sequence (RRRRRRWGRRRRRRPKGKRKV; CONTROL PEPTIDE)” was run?
Answer: Its value is “also promotes the delivery of the oligonucleotide to the nucleus”.

Question: How did the “inhibition of PKC-α protein expression, in words” value (PKC-α [1]; long-peptide experiments, ISIS 3521 0.25, 0.5, 1 μM, ISIS 4559 2 μM, chloroquine not required) turn out when “l-protamine-NLS: long Arg-rich protamine fragment peptide with C-terminal SV40 large T-antigen nuclear localization signal (RRRRSRRRRRRFGRRRRRRVWRRRRPKKKRKV; NOVEL PEPTIDE - SV40/PROTAMINE SOURCE)” was run?
Answer: Its value is “no effect”.

Question: What about the “inhibition of PKC-α protein expression, in words” value (PKC-α [2]) of the same compound?
Answer: Its value is “no effect”.
